From ChEMBL document CHEMBL1141075, “4-Oxo-4,7-dihydrothieno[2,3-b]pyridines as non-nucleoside inhibitors of human cytomegalovirus and related herpesvirus polymerases” (J Med Chem, 2005) come the findings set out here.

What is called IC50 is the concentration that inhibits the measured activity by half. Low values mean greater potency, high ones weaker potency.

Experiment [1] has as its target T1, DNA polymerase catalytic subunit (Human cytomegalovirus (strain AD169) (HHV-5) (Human herpesvirus 5), UniProt P08546).
T1 sequence (P08546 whole entry): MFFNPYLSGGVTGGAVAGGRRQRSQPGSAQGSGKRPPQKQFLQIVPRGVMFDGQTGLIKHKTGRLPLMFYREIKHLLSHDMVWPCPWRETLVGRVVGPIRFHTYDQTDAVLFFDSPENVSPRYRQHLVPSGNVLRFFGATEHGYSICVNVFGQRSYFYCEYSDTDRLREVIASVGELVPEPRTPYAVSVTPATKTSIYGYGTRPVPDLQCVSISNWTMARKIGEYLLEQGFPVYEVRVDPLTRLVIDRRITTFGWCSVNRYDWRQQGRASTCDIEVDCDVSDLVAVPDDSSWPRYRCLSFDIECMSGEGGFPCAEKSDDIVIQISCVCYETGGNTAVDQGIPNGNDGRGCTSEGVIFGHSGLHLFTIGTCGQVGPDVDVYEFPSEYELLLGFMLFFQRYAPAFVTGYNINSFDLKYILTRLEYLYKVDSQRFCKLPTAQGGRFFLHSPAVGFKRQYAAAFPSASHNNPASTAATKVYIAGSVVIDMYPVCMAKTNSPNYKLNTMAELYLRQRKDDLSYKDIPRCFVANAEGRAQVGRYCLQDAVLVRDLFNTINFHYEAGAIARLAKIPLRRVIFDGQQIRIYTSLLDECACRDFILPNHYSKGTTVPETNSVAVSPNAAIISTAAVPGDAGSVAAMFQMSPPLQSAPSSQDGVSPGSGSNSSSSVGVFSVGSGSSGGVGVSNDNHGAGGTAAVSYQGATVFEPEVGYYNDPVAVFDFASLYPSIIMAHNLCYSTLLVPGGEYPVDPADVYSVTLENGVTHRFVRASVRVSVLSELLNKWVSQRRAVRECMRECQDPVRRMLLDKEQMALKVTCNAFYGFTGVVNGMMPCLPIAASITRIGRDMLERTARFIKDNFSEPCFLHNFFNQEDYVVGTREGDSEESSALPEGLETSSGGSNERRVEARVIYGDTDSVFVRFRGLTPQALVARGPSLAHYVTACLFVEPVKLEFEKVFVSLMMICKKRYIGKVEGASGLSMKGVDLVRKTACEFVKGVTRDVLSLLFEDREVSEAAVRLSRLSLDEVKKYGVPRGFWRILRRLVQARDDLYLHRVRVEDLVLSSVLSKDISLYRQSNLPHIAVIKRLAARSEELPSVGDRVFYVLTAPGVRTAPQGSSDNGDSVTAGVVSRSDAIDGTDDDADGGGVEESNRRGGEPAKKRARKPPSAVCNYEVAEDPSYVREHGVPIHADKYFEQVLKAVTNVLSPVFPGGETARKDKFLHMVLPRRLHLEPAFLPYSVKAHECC
Description: Inhibition of human cytomegalovirus DNA polymerase (95 uL) activity in a solution containing […] HEPES (pH 7.5), incubation for 12 minutes at 26 degrees C. More on the design: species or system Human betaherpesvirus 5.

The subject of a further experiment is HFF. Description: Antiviral activity against human cytomegalovirus (Davis strain) grown on human foreskin fibroblast cells determined by reduction in plaque formation upon incubation at 37 degrees C with the compound dissolved in DMSO. It counts as functional, cell-based.
Experiment [2] addresses T2, DNA polymerase delta catalytic subunit (Homo sapiens, UniProt P28340).
T2 sequence (P28340 whole entry): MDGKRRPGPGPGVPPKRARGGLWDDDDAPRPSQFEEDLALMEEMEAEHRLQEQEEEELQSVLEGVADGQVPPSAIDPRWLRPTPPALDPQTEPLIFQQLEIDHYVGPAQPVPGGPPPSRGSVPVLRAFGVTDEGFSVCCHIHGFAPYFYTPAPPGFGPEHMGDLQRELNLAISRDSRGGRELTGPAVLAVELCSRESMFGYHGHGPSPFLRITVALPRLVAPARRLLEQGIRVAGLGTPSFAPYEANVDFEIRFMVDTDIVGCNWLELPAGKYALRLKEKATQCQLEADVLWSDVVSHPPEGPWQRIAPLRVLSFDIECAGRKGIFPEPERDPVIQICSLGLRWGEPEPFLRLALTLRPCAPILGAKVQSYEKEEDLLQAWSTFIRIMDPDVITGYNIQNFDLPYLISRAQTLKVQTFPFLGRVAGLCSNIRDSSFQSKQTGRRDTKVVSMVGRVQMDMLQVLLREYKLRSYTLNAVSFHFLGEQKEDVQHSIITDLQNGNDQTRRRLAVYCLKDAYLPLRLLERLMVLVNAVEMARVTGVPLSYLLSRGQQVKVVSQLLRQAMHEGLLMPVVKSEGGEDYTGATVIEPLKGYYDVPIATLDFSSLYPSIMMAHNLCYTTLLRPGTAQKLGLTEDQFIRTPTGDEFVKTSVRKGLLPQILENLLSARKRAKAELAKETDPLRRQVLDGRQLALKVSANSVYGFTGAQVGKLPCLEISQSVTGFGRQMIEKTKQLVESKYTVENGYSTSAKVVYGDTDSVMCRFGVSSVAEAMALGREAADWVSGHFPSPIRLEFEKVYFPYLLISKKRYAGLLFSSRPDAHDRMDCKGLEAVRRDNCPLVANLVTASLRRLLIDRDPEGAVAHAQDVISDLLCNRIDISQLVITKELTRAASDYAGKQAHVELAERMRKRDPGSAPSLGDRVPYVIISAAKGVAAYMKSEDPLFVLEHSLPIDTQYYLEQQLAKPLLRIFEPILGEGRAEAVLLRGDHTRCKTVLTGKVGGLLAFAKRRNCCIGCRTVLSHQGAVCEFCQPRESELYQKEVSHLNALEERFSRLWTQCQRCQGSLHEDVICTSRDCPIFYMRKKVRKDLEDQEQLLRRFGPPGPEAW
Put plainly: Inhibition of human delta DNA polymerase (95 uL) activity in a solution containg […] HEPES (pH 7.5) upon incubation for 12 minutes at 26 degrees C with the compound dissolved in DMSO.

In experiment [3] the target is T3, DNA polymerase alpha catalytic subunit (Homo sapiens, UniProt P09884).
T3 sequence (P09884 whole entry): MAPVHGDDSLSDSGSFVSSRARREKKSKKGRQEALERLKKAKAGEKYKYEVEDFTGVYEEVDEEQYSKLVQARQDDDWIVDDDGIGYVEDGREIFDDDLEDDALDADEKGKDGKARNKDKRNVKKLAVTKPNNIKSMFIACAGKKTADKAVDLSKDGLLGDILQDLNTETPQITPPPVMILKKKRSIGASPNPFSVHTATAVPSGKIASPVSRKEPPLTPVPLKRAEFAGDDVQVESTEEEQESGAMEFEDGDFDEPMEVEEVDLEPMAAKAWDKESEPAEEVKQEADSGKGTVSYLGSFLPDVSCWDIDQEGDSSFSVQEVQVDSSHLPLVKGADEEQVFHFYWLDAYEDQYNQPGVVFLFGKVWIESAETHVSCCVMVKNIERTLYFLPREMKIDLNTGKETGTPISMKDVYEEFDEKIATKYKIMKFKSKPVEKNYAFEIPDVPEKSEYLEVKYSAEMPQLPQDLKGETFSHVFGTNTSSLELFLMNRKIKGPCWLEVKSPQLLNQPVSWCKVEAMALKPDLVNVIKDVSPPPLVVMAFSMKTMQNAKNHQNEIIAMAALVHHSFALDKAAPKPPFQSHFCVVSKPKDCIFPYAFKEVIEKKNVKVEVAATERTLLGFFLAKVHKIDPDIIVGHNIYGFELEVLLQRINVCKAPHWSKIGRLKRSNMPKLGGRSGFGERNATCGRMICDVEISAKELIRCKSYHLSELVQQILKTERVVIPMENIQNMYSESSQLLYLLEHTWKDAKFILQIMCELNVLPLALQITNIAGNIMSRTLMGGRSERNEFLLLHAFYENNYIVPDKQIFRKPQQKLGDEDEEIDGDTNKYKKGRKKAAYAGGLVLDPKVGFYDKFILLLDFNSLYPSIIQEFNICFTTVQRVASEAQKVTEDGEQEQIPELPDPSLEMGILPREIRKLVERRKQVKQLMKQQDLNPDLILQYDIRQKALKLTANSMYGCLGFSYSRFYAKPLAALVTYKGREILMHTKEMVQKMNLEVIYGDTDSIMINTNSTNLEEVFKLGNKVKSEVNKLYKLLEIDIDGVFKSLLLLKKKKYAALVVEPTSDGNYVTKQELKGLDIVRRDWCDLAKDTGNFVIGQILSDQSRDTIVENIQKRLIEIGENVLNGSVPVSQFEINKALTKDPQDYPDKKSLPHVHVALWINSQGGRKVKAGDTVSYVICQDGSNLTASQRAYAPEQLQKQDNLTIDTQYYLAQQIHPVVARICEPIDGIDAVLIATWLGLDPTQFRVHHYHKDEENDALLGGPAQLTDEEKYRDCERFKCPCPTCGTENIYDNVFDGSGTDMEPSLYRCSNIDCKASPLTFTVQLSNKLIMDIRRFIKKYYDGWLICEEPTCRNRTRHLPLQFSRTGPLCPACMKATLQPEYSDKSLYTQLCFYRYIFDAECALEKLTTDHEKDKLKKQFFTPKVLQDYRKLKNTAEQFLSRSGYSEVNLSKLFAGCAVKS
Description: Inhibition of human alpha DNA polymerase (95 uL) activity in a solution containg […] HEPES (pH 7.5) upon incubation for 12 minutes at 26 degrees C with the compound dissolved in DMSO.

A value given as a limit tells only on which side of the number the result lay.

Turning to `Cn1cc(C(=O)NCc2ccc(Cl)cc2)c(=O)c2cc(CCO)sc21`, the IC50 in experiment [1] came out at 4000 nM.
In experiment [1], `Cn1cc(C(=O)NCc2ccc(Cl)cc2)c(=O)c2cc(C#CCCO)sc21` returned a concentration for half-maximal inhibition (IC50) of 9500 nM.
Compound `Cn1cc(C(=O)NCc2ccc(Cl)cc2)c(=O)c2cc(C#CCCCO)sc21` came in with a 50% inhibitory concentration (IC50) in experiment [1] of 22000 nM. This IC50 lies about 2.3-fold higher than the previous one.
For `O=C(NCc1ccc(Cl)cc1)c1cnc2sc(CCCO)cc2c1O`, the concentration for half-maximal inhibition (IC50) with HFF is greater than 20000 nM.
Take `O=C(NCc1ccc(Cl)cc1)c1cn(CCO)c2sc(C#CCO)cc2c1=O`: the results for the concentration for half-maximal inhibition (IC50) (with HFF; in experiment [1]) were 2300 nM and 1100 nM, respectively.
`O=C(NCc1ccc(Cl)cc1)c1cn(CCO)c2sc(CCCO)cc2c1=O`: the results for the IC50 (in the experiment with HFF; in experiment [1]) were 1800 nM and 750 nM, respectively.
With `CCN(CC)CCn1cc(C(=O)NCc2ccc(Cl)cc2)c(=O)c2cc(CCCO)sc21`, the IC50 in the experiment on HFF came to 900 nM.
`CCn1cc(C(=O)NCc2ccc(Cl)cc2)c(=O)c2cc(C#CCO)sc21` registered an IC50 in the experiment with HFF of 1700 nM. This IC50 lies about 1.9-fold higher than the previous one.
On the same count and under the same terms, as for `CCn1cc(C(=O)NCc2ccc(Cl)cc2)c(=O)c2cc(CCCO)sc21`, the figure is 2300 nM; as for `Cn1cc(C(=O)NCc2ccc(Cl)cc2)c(=O)c2cc(C#CCO)sc21`, 1400 nM.
With `O=C(NCc1ccc(Cl)cc1)c1cnc2sc(C#CCO)cc2c1O`, the values for the IC50 (in the experiment with HFF; in experiment [1]) were greater than 20000 nM and 2700 nM, respectively.
With `CC(C)n1cc(C(=O)NCc2ccc(Cl)cc2)c(=O)c2cc(CCCO)sc21`, in the experiment on HFF, the IC50 amounted to 1300 nM.
In the case of `Cn1cc(C(=O)NCc2ccc(Cl)cc2)c(=O)c2cc(CCCCO)sc21`, in experiment [1], the half-maximal inhibitory concentration (IC50) turned out to be 430 nM. This counts as sub-micromolar.
As to `CC(C)n1cc(C(=O)NCc2ccc(Cl)cc2)c(=O)c2cc(C#CCO)sc21`, the 50% inhibitory concentration (IC50) in the experiment on HFF came to 2700 nM.
Regarding `CCN(CC)CCn1cc(C(=O)NCc2ccc(Cl)cc2)c(=O)c2cc(C#CCO)sc21`, the IC50 in the experiment with HFF was 3800 nM; in experiment [1], 1800 nM.
Regarding `Cn1cc(C(=O)NCc2ccc(Cl)cc2)c(=O)c2cc(CCCCCO)sc21`, in experiment [1], the IC50 came to 9700 nM.
As for `C[C@@]1(CO)[C@H](O)CC[C@@]2(C)[C@H]1CC[C@H]1C[C@@H]3C[C@@]12CC[C@]3(O)CO` [APHIDICOLIN], in experiment [2], the IC50 was greater than 40000 nM.
For the compound `O=C(O)P(=O)(O)O` [FOSCARNET], the IC50 in experiment [3] and in experiment [2] was greater than 20000 nM each time.
`Cc1cn([C@H]2C[C@H](N=[N+]=[N-])[C@@H](CO[P@](=O)(O)O[P@](=O)(O)OP(=O)(O)O)O2)c(=O)[nH]c1=O` [ZIDOVUDINE TRIPHOSPHATE] returned a concentration for half-maximal inhibition (IC50) in experiment [3] of 13400 nM.
